Entries after “also recorded” stand apart in the source; their conditions may differ.
Columns and labels:
[1] = tested on: mouse model of conjunctival scarring; test: Mouse model of conjunctival scarring, quantitative multiphoton imaging and histology of collagen; assay type: in vivo
Description: The conjunctiva was dissected to reveal the sclera where an incision was made into the anterior chamber. The resulting fistula allowed aqueous humor to exit into and underneath the conjunctiva. The accumulated fluid underneath the sutured conjunctiva was observed as a conjunctival bleb. To determine whether VPA has the capacity to protect collagen architecture, quantitative multiphoton imaging as described in Xu S et al (J. Hepatol., 2014, 61(2):260-269) was used to measure collagen properties in the mouse model of conjunctival scarring treated with VPA. The onset of scarring, as indicated by peak production of collagen mRNA, was measured on day 7 post-surgery. The mature scar was measured on day 14 post-surgery when collagen mRNA production was subdued. To study the impact of VPA on the collagen architecture during the onset of scarring on day 7, mice were injected with 300 μg/ml VPA directly into the operated area immediately after surgery and on day 2. To determine the effect of VPA in the mature scar on day 14, mice were injected as above, with an additional injection on day 7. By this method, it could be readily observed in histologically-stained sections as well as multiphoton scans that collagen fibers in the VPA-treated eyes were thinner than those in the PBS-treated control eyes. Exemplary collagen fibers showing the thinning effect of VPA are indicated by the white arrowheads in FIG. 2.

[2] = tested on: primary rabbit conjunctival fibroblasts; test: Type I collagen (Col1a1) expression and cell growth in primary rabbit conjunctival fibroblasts; assay type: cell-based
Procedure: For application in the rabbit model of microshunt implant surgery (PRESERFLO® MicroShunt, Santen), the dosage of VPA to be used was determined using primary rabbit conjunctival fibroblasts for (1) effectiveness in reducing type I collagen, and (2) non-toxicity on cell growth, as shown in FIG. 6.

[3] = tested on: human Tenons conjunctival fibroblasts; test: Type I collagen (Col1a1) expression in human Tenons conjunctival fibroblasts; assay type: cell-based; details: human Tenons conjunctival fibroblasts from three donors
Procedure: Likewise, for application in human, the dosage of VPA to be used was determined as in the rabbit model for effectiveness in reducing type I collagen. The effect of VPA on type I collagen expression in human Tenons conjunctival fibroblasts derived from three independent donors was investigated, and the results are as shown in FIG. 6B.

[4] = tested on: rabbit model of microshunt implant surgery; test: Rabbit model of microshunt implant surgery (PRESERFLO MicroShunt), VPA alone vs PBS; assay type: in vivo
Procedure: The rabbit model of microshunt implant surgery using the PRESERFLO® MicroShunt (Santen) was performed with a total of 11 injections of 300 μg/ml VPA, immediately after surgery, and once daily for first 7 days, followed by injections on days 10, 14 and 21 post-surgery. The rabbit eyes were evaluated by slit lamp photography (FIG. 7).
Confocal microscopy was used to correlate bleb appearance and function. It is known that significant positively correlating features include cyst size and vasculature density/tortuosity.

[5] = tested on: rabbit model of microshunt implant surgery; test: Rabbit model of microshunt implant surgery, MMC high/low dose and low dose MMC with VPA; assay type: in vivo
Procedure: The rabbit model of microshunt implant surgery using the PRESERFLO® MicroShunt (Santen) was performed and treated under these conditions: • (a) 0.4 mg/ml MMC via sponge for 1 min; • (b) 0.1 mg/ml MMC via sponge for 1 min; and • (c) 0.1 mg/ml MMC via sponge for 1 min in combination with a total of 11 injections of 300 μg/ml VPA, immediately after surgery, and once daily for first 7 days, followed by injections on days 10, 14 and 21 post-surgery.
The rabbit eyes were then evaluated.

[6] = 300 μg/ml VPA, 28 days post-surgery, vs PBS
[7] = 300 μg/ml VPA, day 28 rabbit tissues
[8] = 300 μg/ml VPA, day 28 rabbit tissues, vs PBS controls

Question: What does the source list for `CCCC(CCC)C(=O)O` [VPA, valproic acid]?
Answer: collagen fibers in histologically-stained sections and multiphoton scans ([1]; 300 μg/ml VPA injected into operated area, vs PBS-treated control eyes): thinner; number of collagen fibers per mm^2 ([1]; 300 μg/ml VPA, both time points (days 7 and 14), vs PBS): significantly reduced; Collagen Reticulation Index (CRI) ([1]; 300 μg/ml VPA, day 7, vs PBS treatment): significant reduction; Collagen Reticulation Index (CRI) ([1]; 300 μg/ml VPA, day 14 mature scar): lack of effect; collagen area ratio (CAR) ([1]; 300 μg/ml VPA, days 7 and 14 post-surgery, vs PBS): significantly reduced; collagen thickness (quantitative multiphoton analyses) ([1]; 300 μg/ml VPA, operated conjunctival sections, vs PBS): reduced; collagen reticulation (measured as CRI and CARD) ([1]; 300 μg/ml VPA, post-operative conjunctiva): not induced; collagen fiber density (CFD) ([1]; 300 μg/ml VPA, vs PBS controls): lack of significant difference; lowest concentration effective in significantly reducing Col1a1 expression without disrupting cell proliferation [2]: 300 µg/mL; lowest concentration effective in significantly reducing Col1a1 expression without disrupting cell proliferation [3]: 300 µg/mL; bleb collagen fiber packing (confocal microscopy) ([4]; 300 μg/ml VPA, 28 days post-surgery, PBS tightly-packed): loosely packed collagen fibers; bleb vasculature (confocal microscopy) ([4]; 300 μg/ml VPA, 28 days post-surgery, PBS tortuous): straight; bleb collagen characteristics (histology) ([4]; 300 μg/ml VPA, 28 days post-surgery, compared to normal tissue): thinner and similarly organized array of collagen fibers; COL1A1 and fibronectin fibers (immunofluorescent staining) [4, 6]: thinner and more diffusely distributed fibers; bleb cysts (confocal microscopy) [4, 6]: large cysts; Smad6 expression [4, 7]: significantly induced; Vegfa expression [4, 7]: significantly elevated; collagen transcript expression [4, 8]: significantly reduced; fibronectin transcript expression [4, 8]: significantly reduced; time a filtering bleb was maintained (slit lamp) ([4]; 11 injections of 300 μg/ml VPA, PBS bleb failed by day 14): at least 28 days; collagen fibers around implant tip (picrosirius red, polarised light) ([5]; VPA 300 μg/mL with 0.1 mg/ml MMC (condition c)): reduced the presence of the thick fibers encapsulating the implant

Question: What does the source list for `CO[C@@]12[C@H](COC(N)=O)C3=C(C(=O)C(C)=C(N)C3=O)N1C[C@@H]1N[C@@H]12` [MMC, mitomycin C]?
Answer: mRNA expression of Col1a1 ([5]; 0.1 mg/ml MMC, day 28 rabbit tissues, vs 0.4 mg/ml MMC and 0.1 mg/ml MMC+VPA, n=5): significantly higher; bleb cysts (confocal microscopy) ([5]; rabbit, in vivo): large cysts; also recorded: smaller cysts; bleb morphology (slit lamp) ([5]; rabbit, in vivo): starkly avascular and cystic bleb; also recorded: less avascular and mildly cystic bleb; collagen fibers around implant tip (picrosirius red, polarised light) ([5]; rabbit, in vivo): thick collagen fibers encapsulating the implant

From patent US20230015595A1, “USE OF VALPROIC ACID FOR REDUCING POST-OPERATIVE SCARRING FOLLOWING A GLAUCOMA SURGERY” (SANTEN PHARMACEUTICAL CO., LTD., priority 2019, published 2023)
